Here are results for 2 substances from patent US7709002B1, “Mutated ras peptides for generation of CD8+Cytotoxic T lymphocytes” (The United States of America as represented by the …, priority 1996, dated 2010).

The subject of one test is BALB/c mouse. Put plainly: Induction of MHC class I-restricted CD8+ CTL responses in the mouse. The test is classed as in vivo, mouse (BALB/c; H-2^d). Particulars: H-2^d. From the text: The basis of immunogenicity, in part, was attributed to the introduction of the mutated Val12 residue, which created a dominant C-terminus anchor for MHC class I binding. The resulting CD8^+ CTL response, thus, likely reflected T cell receptor recognition of a previously unseen peptide/MHC complex. In contrast to the ras5-14 sequence, ras4-12(V12) only partly shared the consensus motif for HLA-A2 binding, as the leucine anchor shifted from position 2 to 3. Importantly, the introduction of the mutated Val12 residue, as in the mouse, now created a dominant C-terminus anchor. […] (See FIG. 6).

Test [1] deals with HLA-A2+ peptide-pulsed targets. In words: Generation and cytotoxicity of ras4-12(V12)-specific CD8+ CTL line from a normal HLA-A2+ donor. Format: cell-based, human. The following applies: wild-type printed as wild-type ras peptide.
The next test addresses T1, human HLA-A2 (Homo sapiens, UniProt P04439, D140Y/D185E/D98H/E176V/E277Q/G131W/G231S/I119V/I121R/I166T/I218V/L300P/L318F/N151K/N90K/P208A/P217A/Q86G/Q94H/R138H/R169H/T345S).
T1 construct: The 174CEM.T2 cell line (“T2”), (transport deletion mutant); endogenous in cells; host or cells: 174CEM.T2 (T2) human cell line
Put plainly: HLA-A2 binding bioassay on T2 cells (flow cytometry). The following applies: T2 bioassay. (Flow cytometry measures light scatter and fluorescence of single cells or particles in a stream.)

Test [2] concerns T2 cell line as target of CD8+ CTL line of RAS patient 32. Put plainly: 51Cr-release cytotoxicity of CD8+ CTL line of RAS patient 32 against peptide-pulsed T2 targets. Format: cell-based, human. Particulars: peptide 10 μg/ml, IVS cycle 7 (FIG. 5). As for the experimental part: FIG. 5. Cytolytic activity by CD8^+ CTL line of RAS patient 32 is peptide-specific. The CD8^+ CTL line of RAS patient 32 (see FIG. 3) was assayed against the T2 cell line as a target, incubated with and without different ras peptides (10 μg/ml), as shown. In parallel, the extent of NK activity was evaluated against K562 cells. Cytotoxicity was determined by ^51Cr-release, and the results expressed at different E/T ratios following IVS cycle 7. Similar results were observed using the second, independently-derived CD8^+ CTL line as described in Table 6.
IVS cycles for evaluation of CD8^+ T cell responses from HLA-A2+Patients. Freshly-thawed PBMC (from ras patients 32 and 33), derived pre-vaccination and post-third vaccination, were enriched in T lymphocytes by passage over nylon wool columns (Robbins Scientific, Sunnyvale, Calif.) and then depleted of CD4^+ T cells by negative selection via panning on anti-CD4 MAb-coated T25 flasks (Applied Immune Sciences, Santa Clara, Calif.). For the first IVS cycle, CD8^+ enriched lymphocytes (5×10^5/well) were cultured in 24-well plates with irradiated, autologous PBMC (5×10^6/well) as APC which had been preincubated for 3 hours with the appropriate mutant ras peptide ([…]) plus human β2-microglobulin (10 μg/ml) (Calbiochem, San Diego, Calif.). […] IL-2 (10 U/ml) was added 3 days later. After an additional 7 days, viable cells (2-5×10^5/well) were re-cultured by weekly stimulation with APC pre-pulsed with peptide/β2-microglobulin, and IL-2 added one day later. After the third or fourth IVS cycle, autologous PBMC were replaced with EBV-transformed, autologous BLCL (5×10^5/well) as APC. […] CTL activity was evaluated from cultures 5 to 6 days after Ag restimulation.
Cytotoxic response. Cytotoxicity was examined by a conventional ^51Cr-release assay, as described (6). Briefly, target cells (i.e. T2, C1R-A2, BLCL, K562) were radiolabeled with 200 μCi of Na2[^51Cr]04 (Amersham) for 60 minutes at 37° C., followed by thorough washing to remove unincorporated isotope. Effectors and targets (1×10^4/well) were incubated in 96-well, U-bottomed plates (Costar) at various effector target (E/T) ratios in the absence and presence of peptide (+/−monoclonal antibody (MAb) directed against CD4, CD8 or HLA-A2 molecules (clone BB7.2 from ATCC)) for up to 6 hours. After incubation, supernatants were collected using a Supernatant Collection System (Skatron, Sterling, Va.) and radioactivity measured in a γ-counter (Packard Instruments, Downers Grove, Ill.). Cytotoxic activity was defined as percent specific release of ^51Cr and determined by the equation: [(experimentalcpm−spontaneouscpm)/maximumcpm−spontaneouscpm)]×100. Results were expressed as the mean±SEM of triplicate cultures. […]

Test [3] deals with post-vaccine PBMC of patient 32. In words: Lymphoproliferation of post-vaccine PBMC of patient 32. Format: cell-based, human. Particulars: multiple IVS cycles.
The test system of test [4] is ras p21 codon 12 mutated carcinoma patients. Put plainly: Phase I vaccination of metastatic carcinoma patients with mutant ras 13-mer peptide in Detox adjuvant. Particulars: patient 32, 0.1 mg/vaccination x3 in Detox adjuvant, s.c. Format: in vivo, human. An excerpt: Patient selection. Adult cancer patients with histologically confirmed diagnosis of adenocarcinoma of the colon, gastrointestinal tract, lung or pancreas with metastatic disease, were screened as potential candidates for this phase I clinical study. Tumor samples from these patients were examined for point mutations in the K-ras gene at codon 12 by polymerase chain reaction (PCR) of paraffin-embedded sections by methods known in the art. In addition to fulfilling all other essential inclusion criteria as specified in the FDA-approved NCI clinical protocol, those patients presenting the appropriate K-ras mutation were then selected for study entry.
Peptides and immunizations. Mutant ras 13-mer peptides used as immunogens were synthesized as clinical grade reagents under GMP conditions (Bachem, Torrance, Calif.: >97% purity by HPLC). Control and additional experimental peptides, which were used in vitro, either were prepared commercially (Bachem) or synthesized in the laboratory on an Applied Biosystems Model 432A personal peptide synthesizer (Foster City, Calif.) using Fmoc chemistry (>90% purity by HPLC). These reagent-grade products were dissolved in aqueous solution at 2 mg/ml, filter-sterilized and stored in aliquots at −70° C. The normal sequence of ras p21 reflecting positions 5-17 is […]([…]) (SEQ. ID NO. 1). […]

Where no end group is shown, it is not given here.

On to YKLVVVGAV [ras4-12(V12)], for which the “Induction of CD8+ CTL responses in mouse” value in the test with BALB/c mouse was “resulted in the induction of MHC class I-restricted CD8^+ CTL responses”. In test [1], the “Generation of peptide-specific CTL line / lysis of peptide-pulsed targets (in words)” value is recorded as “A CD8^+ CTL line specific for ras4-12(V12) was then derived”. Besides, the “Binding to HLA-A2 on T2 cells (in words)” value with human HLA-A2 is “specific, albeit weak, binding to HLA-A2”.
“Lys-Leu-Val-Val-Val-Gly-Ala-Asp-Gly-Val-Gly-Lys-Ser [ras5-17(Asp12)]”: the “Sensitization of T2 targets for lysis (in words)” value in test [2] is given as “did not appear to induce cytotoxicity”. The “CD4+ proliferative response against immunizing 13-mer peptide” value in test [3] is listed as “No specific CD4^+ proliferative response was observed”. For the same substance, in test [4], the “T cell response induced by vaccination” value is “led to peptide-specific CD8^+ CTL activation”.
